Calls of active or inactive are those of the source.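 The calls were made as follows: active = tubulin-normalized E-cadherin at least double the DMSO level by western blot, or significantly raised by in-cell western; inactive = the rest.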
Test system: SW620/H520 cells, E-cadherin In-Cell Western
Experiment: E-cadherin expression restoration, SW620 and H520 cells, In-Cell Western (AID 651862)

Row | Compound | EC50
1 | N#Cc1ccc(NCCCNC(=O)c2cc(-c3ccccc3)on2)nc1 | 3.13 µM
2 | O=C(NCCCNCc1ccc(O)c(O)c1)c1cc(-c2ccccc2)on1 | 4.56 µM
3 | [N-]=[N+]=Nc1nccc(NCCCNC(=O)c2cc(-c3ccccc3)on2)n1 | 2.55 µM

Now from value to compound:

Row | EC50 | Compound
4 | 2.22 µM | O=C(NCCCNC(=O)c1ccc[nH]c1=O)c1cc(-c2ccccc2)on1
5 | 12 µM (inactive) | O=C(NCCCNCc1cnoc1)c1cc(-c2ccccc2)on1
6 | 3.82 µM | O=C(NCCNC(=O)c1nccs1)c1cc(-c2ccccc2)on1

— PubChem BioAssay AID651862 (Vanderbilt Specialized Chemistry Center, 2012)
